{
  "source": "patent US12098144B2",
  "about": "“Piperazine indazole glucocorticoid receptor antagonists” (Corcept Therapeutics Incorporated, priority 2021, dated 2024)",
  "data": [
    {"target": "T1, glucocorticoid receptor (Homo sapiens, UniProt P04150)", "T1 construct": "endogenous in cells; ATCC cat", "T1 sequence (P04150 1-777)": "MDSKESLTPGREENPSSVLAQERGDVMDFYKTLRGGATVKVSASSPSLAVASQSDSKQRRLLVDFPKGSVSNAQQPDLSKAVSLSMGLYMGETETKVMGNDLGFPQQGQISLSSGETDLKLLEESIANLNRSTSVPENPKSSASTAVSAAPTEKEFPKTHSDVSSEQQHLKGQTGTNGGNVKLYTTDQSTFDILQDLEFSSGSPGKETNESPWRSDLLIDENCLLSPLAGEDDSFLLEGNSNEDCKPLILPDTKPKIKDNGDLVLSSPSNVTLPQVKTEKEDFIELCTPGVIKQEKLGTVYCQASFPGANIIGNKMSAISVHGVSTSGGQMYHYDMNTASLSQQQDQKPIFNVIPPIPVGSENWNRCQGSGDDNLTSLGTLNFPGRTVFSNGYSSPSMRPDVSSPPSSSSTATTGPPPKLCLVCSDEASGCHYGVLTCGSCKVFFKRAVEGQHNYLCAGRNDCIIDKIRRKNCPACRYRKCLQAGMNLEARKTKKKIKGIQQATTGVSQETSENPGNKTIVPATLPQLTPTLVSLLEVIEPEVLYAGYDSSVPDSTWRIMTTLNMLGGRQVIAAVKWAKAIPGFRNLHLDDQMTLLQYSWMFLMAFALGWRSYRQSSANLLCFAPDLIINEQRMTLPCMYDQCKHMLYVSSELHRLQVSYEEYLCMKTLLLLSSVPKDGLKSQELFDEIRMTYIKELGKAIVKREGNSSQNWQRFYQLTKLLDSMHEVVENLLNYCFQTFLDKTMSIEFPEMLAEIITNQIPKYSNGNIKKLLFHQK", "assay": "Hep G2 TAT Ki: inhibition of dexamethasone-induced TAT in HepG2 cells (96 well)", "format": "cell-based", "conditions": "challenge of 100 nM dexamethasone, IC50 converted to Ki by Cheng and Prusoff equation", "description": "Glucocorticoid mediated activation of TAT occurs by transactivation of glucocorticoid response elements in the TAT promoter by glucocorticoid receptor-agonist complex.\nHepG2 cells were cultured using MEME media supplemented with 10% (v/v) foetal bovine serum; 2 mM L-glutamine and 1% (v/v) NEAA at 37° C., 5%/95% (v/v) CO2/air.\nCompounds were serially half log diluted in 100% (v/v) dimethylsulphoxide from a 10 mM stock.\nHepG2 cells were then lysed with 30 μl of cell lysis buffer containing a protease inhibitor cocktail for 15 minutes at 4° C. […] After 2 hours incubation at 37° C. the reaction was terminated by the addition of 15 μl of 10M aqueous potassium hydroxide solution, and the plates incubated for a further 30 minutes at 37° C.\n[compound] and fitting the data to a 4 parameter logistic equation.", "units": {"Ki": "µM"}, "values": [
      {"smiles": "Cc1cc2c(cnn2-c2ccc(F)cc2)cc1C1CN(S(=O)(=O)c2cnn(C)n2)CCN1CC1(F)CC1", "note": "(single isomer, unassigned) [Example 79, 5-(1-((1-fluorocyclopropyl)methyl)-4-((2-methyl-2H-1,2,3-triazol-4-yl)sulfonyl)piperazin-2-yl)-1-(4-fluorophenyl)-6-methyl-1H-indazole]", "Ki": 0.029},
      {"smiles": "Cc1cc2c(cnn2-c2ccc(F)cc2)cc1C1CN(S(=O)(=O)c2cnn(C)n2)CCN1Cc1ccn(C)n1", "note": "(single isomer, unassigned) [Example 80, 1-(4-fluorophenyl)-6-methyl-5-(1-((1-methyl-1H-pyrazol-3-yl)methyl)-4-((2-methyl-2H-1,2,3-triazol-4-yl)sulfonyl)piperazin-2-yl)-1H-indazole]", "Ki": 0.15},
      {"smiles": "Cc1cc2c(cnn2-c2ccc(F)cc2)cc1C1CN(S(=O)(=O)c2cnn(C)n2)CCN1Cc1ccon1", "note": "(single isomer, unassigned) [Example 81, 3-((2-(1-(4-fluorophenyl)-6-methyl-1H-indazol-5-yl)-4-((2-methyl-2H-1,2,3-triazol-4-yl)sulfonyl)piperazin-1-yl)methyl)isoxazole]", "Ki": 0.073},
      {"smiles": "Cc1cc2c(cnn2-c2ccc(F)cc2)cc1C1CN(S(=O)(=O)c2cnn(C)n2)CCN1CC(C)(C)CO", "note": "(single isomer, unassigned) [Example 82, 3-(2-(1-(4-fluorophenyl)-6-methyl-1H-indazol-5-yl)-4-((2-methyl-2H-1,2,3-triazol-4-yl)sulfonyl)piperazin-1-yl)-2,2-dimethylpropan-1-ol]", "Ki": 0.043},
      {"smiles": "Cc1cc2c(cnn2-c2ccc(F)cc2)cc1C1CN(S(=O)(=O)c2cnn(C)n2)CCN1CC1(C(F)(F)F)CC1", "note": "(single isomer, unassigned) [Example 83, 1-(4-fluorophenyl)-6-methyl-5-(4-((2-methyl-2H-1,2,3-triazol-4-yl)sulfonyl)-1-((1-(trifluoromethyl)cyclopropyl)methyl)piperazin-2-yl)-1H-indazole]", "Ki": 0.033},
      {"smiles": "Cc1cc2c(cnn2-c2ccc(F)cc2)cc1C1CN(S(=O)(=O)c2cnn(C)n2)CCN1CC1CCOC1", "note": "(single isomer, unassigned) [Example 85, 1-(4-fluorophenyl)-6-methyl-5-(4-((2-methyl-2H-1,2,3-triazol-4-yl)sulfonyl)-1-((tetrahydrofuran-3-yl)methyl)piperazin-2-yl)-1H-indazole]", "Ki": 0.029},
      {"smiles": "Cc1cc2c(cnn2-c2ccc(F)cc2)cc1C1CN(S(=O)(=O)c2ncn(C)n2)CCN1CC(C)C", "note": "(single isomer, unassigned) [Example 92, 1-(4-fluorophenyl)-5-(1-isobutyl-4-((1-methyl-1H-1,2,4-triazol-3-yl)sulfonyl)piperazin-2-yl)-6-methyl-1H-indazole]", "Ki": 0.086},
      {"smiles": "Cc1cc2c(cnn2-c2ccc(F)cc2)cc1C1CN(S(=O)(=O)c2nn(C)nc2C)CCN1CC(C)C", "note": "(single isomer, unassigned) [Example 93, 5-(4-((2,5-dimethyl-2H-1,2,3-triazol-4-yl)sulfonyl)-1-isobutylpiperazin-2-yl)-1-(4-fluorophenyl)-6-methyl-1H-indazole]", "Ki": 0.036},
      {"smiles": "Cc1cc2c(cnn2-c2ccc(F)cc2)cc1C1CN(S(=O)(=O)c2nncn2C)CCN1CC(C)C", "note": "(single isomer, unassigned) [Example 94, 1-(4-fluorophenyl)-5-(1-isobutyl-4-((4-methyl-4H-1,2,4-triazol-3-yl)sulfonyl)piperazin-2-yl)-6-methyl-1H-indazole]", "Ki": 0.074},
      {"smiles": "Cc1cc2c(cnn2-c2ccc(F)cc2)cc1C1CN(S(=O)(=O)c2cnn(CC(F)(F)F)n2)CCN1CC(C)C", "note": "(single isomer, unassigned) [Example 95, 1-(4-fluorophenyl)-5-(1-isobutyl-4-((2-(2,2,2-trifluoroethyl)-2H-1,2,3-triazol-4-yl)sulfonyl)piperazin-2-yl)-6-methyl-1H-indazole]", "Ki": 0.1},
      {"smiles": "Cc1cc2c(cnn2-c2ccc(F)cc2)cc1C1CN(S(=O)(=O)c2cn(CC(F)F)nc2C)CCN1CC(C)C", "note": "(single isomer, unassigned) [Example 96, 5-(4-((1-(2,2-difluoroethyl)-3-methyl-1H-pyrazol-4-yl)sulfonyl)-1-isobutylpiperazin-2-yl)-1-(4-fluorophenyl)-6-methyl-1H-indazole]", "Ki": 0.043},
      {"smiles": "Cc1cc2c(cnn2-c2ccc(F)cc2)cc1C1CN(S(=O)(=O)c2cccnc2)CCN1CC(C)C", "note": "(single isomer, unassigned) [Example 97, 1-(4-fluorophenyl)-5-(1-isobutyl-4-(pyridin-3-ylsulfonyl)piperazin-2-yl)-6-methyl-1H-indazole]", "Ki": 0.023},
      {"smiles": "Cc1cc2c(cnn2-c2ccc(F)cc2)cc1C1CN(S(=O)(=O)c2ccc(C#N)cc2)CCN1CC(C)C", "note": "(single isomer, unassigned) [Example 98, 4-((3-(1-(4-fluorophenyl)-6-methyl-1H-indazol-5-yl)-4-isobutylpiperazin-1-yl)sulfonyl)benzonitrile]", "Ki": 0.025},
      {"smiles": "Cc1nc(S(=O)(=O)N2CCN(CC(C)C)C(c3cc4cnn(-c5ccc(F)cc5)c4cc3C)C2)cs1", "note": "(single isomer, unassigned) [Example 99, 4-((3-(1-(4-fluorophenyl)-6-methyl-1H-indazol-5-yl)-4-isobutylpiperazin-1-yl)sulfonyl)-2-methylthiazole]", "Ki": 0.019},
      {"smiles": "Cc1cc2c(cnn2-c2ccc(F)cc2)cc1C1CN(S(=O)(=O)c2c(C)nnn2C)CCN1CC(C)C", "note": "(single isomer, unassigned) [Example 100, 5-(4-((1,4-dimethyl-1H-1,2,3-triazol-5-yl)sulfonyl)-1-isobutylpiperazin-2-yl)-1-(4-fluorophenyl)-6-methyl-1H-indazole]", "Ki": 0.042},
      {"smiles": "Cc1cc2c(cnn2-c2ccc(F)cc2)cc1C1CN(S(=O)(=O)c2cn(C)nn2)CCN1CC(C)C", "note": "(single isomer, unassigned) [Example 101, 1-(4-fluorophenyl)-5-(1-isobutyl-4-((1-methyl-1H-1,2,3-triazol-4-yl)sulfonyl)piperazin-2-yl)-6-methyl-1H-indazole]", "Ki": 0.028},
      {"smiles": "Cc1cc2c(cnn2-c2ccc(F)cc2)cc1C1CN(S(=O)(=O)c2ccc(C(F)(F)F)nc2)CCN1CC(C)C", "note": "(single isomer, unassigned) [Example 102, 1-(4-fluorophenyl)-5-(1-isobutyl-4-((6-(trifluoromethyl)pyridin-3-yl)sulfonyl)piperazin-2-yl)-6-methyl-1H-indazole]", "Ki": 0.039},
      {"smiles": "COc1ccc(S(=O)(=O)N2CCN(CC(C)C)C(c3cc4cnn(-c5ccc(F)cc5)c4cc3C)C2)cn1", "note": "(single isomer, unassigned) [Example 103, 1-(4-fluorophenyl)-5-(1-isobutyl-4-((6-methoxypyridin-3-yl)sulfonyl)piperazin-2-yl)-6-methyl-1H-indazole]", "Ki": 0.035},
      {"smiles": "Cc1ccc(S(=O)(=O)N2CCN(CC(C)C)C(c3cc4cnn(-c5ccc(F)cc5)c4cc3C)C2)cn1", "note": "(single isomer, unassigned) [Example 104, 1-(4-fluorophenyl)-5-(1-isobutyl-4-((6-methylpyridin-3-yl)sulfonyl)piperazin-2-yl)-6-methyl-1H-indazole]", "Ki": 0.019},
      {"smiles": "Cc1cc2c(cnn2-c2ccc(F)cc2)cc1C1CN(S(=O)(=O)c2cccnc2C(F)(F)F)CCN1CC(C)C", "note": "(single isomer, unassigned) [Example 105, 1-(4-fluorophenyl)-5-(1-isobutyl-4-((2-(trifluoromethyl)pyridin-3-yl)sulfonyl)piperazin-2-yl)-6-methyl-1H-indazole]", "Ki": 0.046},
      {"smiles": "Cc1cc2c(cnn2-c2ccc(F)cc2)cc1C1CN(S(=O)(=O)CC(F)(F)F)CCN1CC(C)C", "note": "(single isomer, unassigned) [Example 106, 1-(4-fluorophenyl)-5-(1-isobutyl-4-((2,2,2-trifluoroethyl)sulfonyl)piperazin-2-yl)-6-methyl-1H-indazole]", "Ki": 0.033},
      {"smiles": "Cc1cc2c(cnn2-c2ccc(F)cc2)cc1C1CN(S(=O)(=O)c2cccnc2C#N)CCN1CC(C)C", "note": "(single isomer, unassigned) [Example 107, 3-((3-(1-(4-fluorophenyl)-6-methyl-1H-indazol-5-yl)-4-isobutylpiperazin-1-yl)sulfonyl)picolinonitrile]", "Ki": 0.022},
      {"smiles": "Cc1cc2c(cnn2-c2ccc(F)cc2)cc1C1CN(S(=O)(=O)CCOC(C)C)CCN1CC(C)C", "note": "(single isomer, unassigned) [Example 108, 1-(4-fluorophenyl)-5-(1-isobutyl-4-((2-isopropoxyethyl)sulfonyl)piperazin-2-yl)-6-methyl-1H-indazole]", "Ki": 0.044}
    ]}
  ]
}
